Data reported in patent US9242006B2, “Composition of chlorin e6 stabilized within albumin for the photodynamic diagnosis and therapy of tumors” (APOCARE PHARMA GMBH, priority 2011, dated 2016).

What was measured:
[1] = 48 hours after administration; cited from earlier work
[2] = Storage stability of chlorin e6 in aqueous solutions with or without human serum albumin, measured by analytical HPLC; type: physicochemical; conditions: for residual active ingredient content / residual active ingredient content (HPLC area) / residual active ingredient content compared with 5 wt. % HSA / residual content of chlorin e6 (HPLC area) / residual chlorin e6 (HPLC area): 30° C.; for residual active ingredient content / residual active ingredient content (HPLC area): 5 wt. % HSA; for residual active ingredient content: all three pH values (7.0, 7.5, 8.0); for residual active ingredient content compared with 5 wt. % HSA: 10 wt. % HSA, pH 7 and pH 7.5; for residual content of chlorin e6 (HPLC area): 20 wt. % HSA; for residual content of chlorin e6 (mean) / residual active ingredient content (mean) / residual active ingredient content (HPLC area, mean) / residual active ingredient content (bound) / residual chlorin e6 (HPLC area, mean): 5° C.; for residual content of chlorin e6 (mean): pH 8.0, 1.25 wt. % HSA; for residual active ingredient content (mean): pH 8.0, 2.5 wt. % HSA; for residual active ingredient content (HPLC area, mean) / residual active ingredient content (bound): pH 8.0, 5 wt. % HSA; for residual chlorin e6 (HPLC area, mean): pH 8.0, pure buffer
Protocol: In order to determine the stability of a composition comprising chlorin e6 and an albumin, three buffer solutions with pH values of 7.0, 7.5 and 8.0, each of which contained potassium dihydrogen phosphate (Merck) and disodium hydrogen phosphate (Merck) as buffer salts, were prepared and sterilised.
Starting from a 20 wt. % stock solution of human serum albumin (Biotest AG), dilute solutions comprising 10 wt. %, 5 wt. % and 0 wt. % human serum albumin were then prepared by means of the above buffer solutions. For the buffering of the 20 wt. % stock solution of human serum albumin, the buffer salts were added in the form of solids directly to 20 ml aliquots of the stock solution.
Thereafter, 2 ml of each of the various buffered solutions were introduced into brown glass bottles with crimped caps, and 40 μl of a 75 mM solution of chlorin e6 sodium salt (ORPEGEN Peptide Chemicals GmbH) in water were added thereto. In this manner there were prepared aqueous solutions of chlorin e6 sodium salt having a concentration of 0 wt. %, 1.25 wt. %, 2.5 wt. %, 5 wt. %, 10 wt. % and 20 wt. % human serum albumin which had pH values of 7.0, 7.5 and 8.0. For the purpose of reproducibility of the results, the individual solutions were each made up several times.
The solutions were re-packaged in a light-tight manner and incubated at 30° C. in a drying cabinet or at 5° C. in a refrigerator. […] Maisch GmbH); eluant: 80 mM triethylammonium phosphate buffer pH 2.25/acetonitrile). The extent of the decomposition of chlorin e6 was calculated in each case by comparing the areas under the peak belonging to chlorin e6 in the HPLC diagram before and after storage.

Compound: C=Cc1c(C)c2cc3nc(c(CC(=O)O)c4[nH]c(cc5nc(cc1[nH]2)C(C)=C5CC)c(C)c4C(=O)O)[C@@H](CCC(=O)O)[C@@H]3C [chlorin e6]
- active substance detectable in the human organism [1]: only traces
- residual active ingredient content ([2]; 4 weeks): > 95%
- residual active ingredient content (HPLC area) ([2]; 4 weeks, pH 7.0): 95.3 % area
- residual active ingredient content (HPLC area) ([2]; 4 weeks, pH 7.5): 97.5 % area
- residual active ingredient content (HPLC area) ([2]; 4 weeks, pH 8.0): 98.6 % area
- residual active ingredient content compared with 5 wt. % HSA ([2]; 4 weeks): slightly higher
- residual content of chlorin e6 (HPLC area) ([2]; 4 weeks, pH 7.0): 94.6 % area
- residual content of chlorin e6 (HPLC area) ([2]; 4 weeks, pH 7.5): 96.4 % area
- residual content of chlorin e6 (HPLC area) ([2]; 4 weeks, pH 8.0): 96.6 % area
- residual chlorin e6 (HPLC area) ([2]; 4 weeks, pure buffer, no HSA, pH 7.0): 1.9 % area
- residual chlorin e6 (HPLC area) ([2]; 4 weeks, pure buffer, no HSA, pH 7.5): 2.4 % area
- residual chlorin e6 (HPLC area) ([2]; 4 weeks, pure buffer, no HSA, pH 8.0): 3.6 % area
- residual content of chlorin e6 (mean) ([2]; 6 months): approximately 83.6%
- residual active ingredient content (mean) ([2]; 6 months): approximately 96.6%
- residual active ingredient content (HPLC area, mean) ([2]; 6 months): 97.9 % area
- residual active ingredient content (bound) ([2]; 6 months): > 97%
- residual chlorin e6 (HPLC area, mean) ([2]; 6 months, no HSA): 1.1 % area
- residual content of chlorin e6 (mean) ([2]; 9 months): approximately 84.9%
- residual active ingredient content (mean) ([2]; 9 months): approximately 93.8%
- residual active ingredient content (HPLC area, mean) ([2]; 9 months): 96.4 % area
- residual active ingredient content (bound) ([2]; 9 months): > 96%
- residual chlorin e6 (HPLC area, mean) ([2]; 9 months, no HSA): 1.74 % area
- residual active ingredient content ([2]; 10 weeks): > 94%
- residual active ingredient content (HPLC area) ([2]; 10 weeks, pH 7.0): 94.1 % area
- residual active ingredient content (HPLC area) ([2]; 10 weeks, pH 7.5): 96.0 % area
- residual active ingredient content (HPLC area) ([2]; 10 weeks, pH 8.0): 97.8 % area
- residual active ingredient content compared with 5 wt. % HSA ([2]; 10 weeks): slightly higher
- residual content of chlorin e6 (HPLC area) ([2]; 10 weeks, pH 7.0): 91.9 % area
- residual content of chlorin e6 (HPLC area) ([2]; 10 weeks, pH 7.5): 94.0 % area
- residual content of chlorin e6 (HPLC area) ([2]; 10 weeks, pH 8.0): 95.9 % area
- residual chlorin e6 (HPLC area) ([2]; 10 weeks, pure buffer, no HSA, pH 7.0): 0 % area
- residual chlorin e6 (HPLC area) ([2]; 10 weeks, pure buffer, no HSA, pH 7.5): 0.52 % area
- residual chlorin e6 (HPLC area) ([2]; 10 weeks, pure buffer, no HSA, pH 8.0): 0.89 % area
- residual content of chlorin e6 (mean) ([2]; 12 months): approximately 69.5%
- residual active ingredient content (mean) ([2]; 12 months): approximately 93.6%
- residual active ingredient content (HPLC area, mean) ([2]; 12 months): 96.7 % area
- residual active ingredient content (bound) ([2]; 12 months): > 96%
- residual chlorin e6 (HPLC area, mean) ([2]; 12 months, no HSA): 0.26 % area
- residual chlorin e6 (HPLC area) ([2]; 4 days, addition of Na caprylate or N-acetyl-DL-tryptophan, no human serum albumin): 68.8 % area
- residual chlorin e6 (HPLC area) ([2]; 4 days, buffer solution pH 8, 5 wt. % human serum albumin): 97.8 % area
- residual chlorin e6 (HPLC area) ([2]; 4 days, non-buffered solution adjusted to pH 7, 5% human serum albumin): 97.0 % area
- residual chlorin e6 (HPLC area) ([2]; 4 days, pure buffer solution pH 8, no human serum albumin): 59.1 % area
- storage life of aqueous solution of chlorin e6 with human serum albumin ([2]; storage at 2 to 8° C., extrapolated from data of FIGS. 1 to 6): at least 12 months
